According to PubChem BioAssay AID2305 (GlaxoSmithKline (GSK), 2010):
“And” between values parts separate entries of the source, which are not always exact repeats. Identical values can stand only once.

These compounds were tested on P. falciparum 3D7 growth, pLDH absorbance (assay: blood-stage malaria parasite growth potency – strain 3D7, dose response (AID 2305)).
In the case of COc1ccc(C2(CNCC(O)c3cccc([N+](=O)[O-])c3)CCCCC2)cc1OC (configuration not stated), the IC50 is reported as 960 nM.
For Clc1ccc(Nc2nc3nonc3nc2Nc2ccc(Cl)c(Cl)c2)cc1, the IC50 was 650 nM.
In the case of CCCCC(O)c1cc(O)c2c(c1)OC(C)(C)CC2C1=CCN(Cc2ccc3ccccc3c2)CC1 (configuration not stated), the IC50 is reported as 970 nM.
With COc1ccc(CCN(C)CCCCc2ccc(NC(=O)c3cccc4c(=O)c5cc(F)ccc5sc34)cc2)cc1OC the IC50 was 900 nM.
CN(C)c1cccc(CN2CC=C(c3c[nH]c4ccc(Cl)cc34)CC2)c1 gave an IC50 of 660 nM.
For O=C(Nc1ccc(-c2ccc(-c3nc4ccccc4[nH]3)s2)cc1)Nc1ccc(Cl)c(Cl)c1, the IC50 was 160 nM.
CCCCCCCCN1CCCN(C(=O)c2cccc(NC(=O)Nc3ccc4ccccc4c3)c2)CC1 showed an IC50 of 760 nM.
For NC(=O)c1cccc(CN2Cc3ccccc3OC3(CCN(Cc4c[nH]c5cnccc45)CC3)C2)c1, the IC50 was 1060 nM.
Work on Nc1nccc2ccc(Oc3ccncc3)cc12 yielded an IC50 of 480 nM.
In the case of NC1CCN(CCc2ccc(NS(=O)(=O)c3ccc(-c4ccccc4)cc3)cc2)CC1, the IC50 is reported as 1020 nM.
Work on COc1cccc(C(C)(C)NC[C@@H](O)[C@H](Cc2ccccc2)NC(=O)c2cc(C3CCCC3)cc(N3CCCCS3(=O)=O)c2F)c1 yielded an IC50 of 30 nM.
Compound O=C(Nc1cccc(OCCN2CCCC2)c1)Nc1ccc(Cl)c(Cl)c1 has an IC50 of 770 nM.
In the case of Cc1ccoc1C(=O)Nc1cccc(-c2cccc(-c3nc4ccc(C(F)(F)F)cc4[nH]3)c2)c1, the IC50 is reported as 610 nM.
For CCCCNc1cc(C)nc(NCc2ccccc2)n1, the IC50 was 970 nM.
Compound Cc1cc(NN=Cc2ccccc2Cl)c2ccc(F)cc2n1 has an IC50 of 260 nM.
For NCC1CCCN1Cc1ccc(-c2cccc(-c3nc4ccc(F)cc4[nH]3)c2)cc1 (configuration not stated), the IC50 was 750 nM.
CN(CCCNC(=S)NC12CC3CC(CC(C3)C1)C2)CCCNc1ccnc2cc(Cl)ccc12 was tested, and the IC50 was 120 nM.
Cc1[nH]c(C)c(-c2ccc(-c3ccc(C(F)F)cc3)nc2)c(=O)c1Cl was tested, and the IC50 was 240 nM.
c1ccc(CN2CCC(NCc3ccccc3-c3cccc(CNCc4ccc5c(c4)OCO5)c3)CC2)cc1 showed an IC50 of 570 nM.
CC(=O)Nc1ccc(C(=O)NC2CCN(c3ccnc4cc(Cl)ccc34)CC2)cc1 gave an IC50 of 360 nM.
With Cc1ccc2c(c1[N+](=O)[O-])N=NCC2Oc1ccccc1 (configuration not stated) the IC50 was 870 nM.
For O=C(c1ccc(-c2ccc(-c3nc4ccccc4[nH]3)s2)cc1)N1CCCCC1CN1CCC(O)C1 (configuration not stated), the IC50 was 1050 nM.
Compound Cn1cc(Br)c(-c2cccc(Nc3ccnc4cc(-c5nccs5)ccc34)c2)n1 has an IC50 of 980 nM.
O=C(NCCN1CCN(S(=O)(=O)c2ccc(OC3CCNCC3)c(Br)c2)CC1)c1ccc(Cl)c(Cl)c1 was tested, and the IC50 was 890 nM.
CC1CCN(CC[C@H]2CCCN2S(=O)(=O)c2cccc(NC(=O)c3ccc(-c4ccc(Cl)cc4)o3)c2)CC1 gave an IC50 of 690 nM.
CCOc1ccc2c(NN=Cc3cccc(OC)c3OC)cc(C)nc2c1 gave an IC50 of 900 nM.
For CCCCC(CCCC)CN1C(=O)C(c2ccccc2)(c2ccccc2)N=C1N, the IC50 was 180 nM.
O=C(Nc1ccccc1Br)N[C@@H]1CCN(c2ccnc3ccccc23)C1 showed an IC50 of 940 nM.
COc1ccc(C2CC(c3cccs3)=NN2C(=O)CNc2ccccc2F)cc1OC (configuration not stated) gave an IC50 of 630 nM.
Work on CN(CCCN(C)c1cc(NC(=O)c2ccc(F)cc2)ccn1)Cc1cccc(O)c1 yielded an IC50 of 1210 nM.
With CCN1CCN(c2cc(C)c3cc(NC(=O)c4cccc([N+](=O)[O-])c4)ccc3n2)CC1 the IC50 was 520 nM.
O=C(CCc1cccc(O)c1)NCC(NCCCNc1cc(=O)c2ccccc2[nH]1)c1cc(Br)cc(Br)c1 (configuration not stated) showed an IC50 of 1170 nM.
For CC(C)Oc1cc2c(cc1NS(=O)(=O)c1ccc(-c3ccc(Cl)cc3)cc1)CCN(C)CC2, the IC50 was 1040 nM.
CC(=O)c1c(CC(=O)O)c2ccccc2n1O was tested, and the IC50 was 740 nM.
In the case of CC1CCc2c(C(=O)Nc3c(F)cc(F)cc3Br)csc2C1 (configuration not stated), the IC50 is reported as 750 nM.
O=C(Nc1ccc(CN2CCOCC2)cc1)c1ccc(-c2ccc(Br)cc2)o1 gave an IC50 of 1120 nM.
Compound O=S(=O)(NCCN1CCCC1)c1ccc(-c2ccc(CN3Cc4ccccc4C3)cc2)s1 has an IC50 of 930 nM.
CN1CCC(N(C)C(=O)C=Cc2cn(-c3ccccc3)nc2-c2cc3ccccc3o2)CC1 was tested, and the IC50 was 1340 nM.
Work on Oc1ccc2[nH]c(-c3ccc(OC(F)(F)F)cc3)nc2c1CNC1CCCC1 yielded an IC50 of 1750 nM.
Compound CN(Cc1ccc(C#N)cc1)C1CCN(c2cc(NC(=O)c3ccc(F)cc3)ccn2)CC1 has an IC50 of 1430 nM.
For FC(F)(F)c1ccc2nc(-c3cccc(-c4cccc(CNCc5cnn(-c6ccccc6)n5)c4)c3)[nH]c2c1, the IC50 was 550 nM.
CCN(CC)CCCCNc1cc(-c2[nH]c(-c3c(Cl)cccc3Cl)nc2-c2ccc3cc(OC)ccc3c2)ccn1 was tested, and the IC50 was 960 nM.
O=C(Nc1ccc(C(=O)OC[C@@H]2CCCN3CCCC[C@H]23)cc1)c1ccc([N+](=O)[O-])cc1 gave an IC50 of 720 nM.
With CCCC(=O)Nc1ccc(Cl)c(NC(=O)COc2cc(C)ccc2C(C)C)c1 the IC50 was 930 nM.
CO/C(=C\C=C\c1cc2cc(Cl)c(Cl)cc2[nH]1)C(=O)NCCCCN1CCN(c2ccccc2OC)CC1 gave an IC50 of 510 nM.
CC(C)(C(=O)NCCC1CCN(CCCCCNC(=O)/C=C/c2ccc(Cl)c(Cl)c2)CC1)c1ccc(Cl)cc1 gave an IC50 of 1280 nM.
With COc1ccc(S(=O)(=O)NC2CCN(c3ccc(C(F)(F)F)cc3NC(=O)OCC(C)C)CC2)cc1 the IC50 was 1220 nM.
Compound CS(=O)(=O)CCNCc1ccc(-c2ccc3c(Nc4ccc(Cl)cc4F)ccnc3c2)o1 has an IC50 of 670 nM.
For c1cc(CNC2CCCC2)cc(-c2ccc(CNc3ccc4ncccc4c3)cc2)c1, the IC50 was 770 nM.
In the case of COc1ccc(NC(=O)[C@H](CC(C)C)Nc2cc(C)nc(NCC3CCCCC3)n2)cc1, the IC50 is reported as 1100 nM.
COc1ccccc1CCNc1ncc(F)c(N[C@@H](Cc2ccccc2)C(=O)NCCc2ccccc2)n1 was tested, and the IC50 was 960 nM.
Work on Fc1ccc2nc(-c3cccc(-c4cccc(CNCc5cnn(-c6ccccc6)n5)c4)c3)[nH]c2c1 yielded an IC50 of 970 nM.
Work on Oc1ccc2c(CNC3CCCCC3)c(O)ccc2c1CNC1CCCCC1 yielded an IC50 of 40 nM.
CCCCCCN1CCC(NCc2ccc(CN(C)C)cc2)CC1 was tested, and the IC50 was 1270 nM.
COc1ccc(CNC2CCN(C)CC2)cc1-c1ccc(S(=O)(=O)NCCc2ccccn2)c(F)c1 was tested, and the IC50 was 820 nM.
With CN(C)c1c(CNCCCCCCNCc2ccc3ccccc3c2N(C)C)ccc2ccccc12 the IC50 was 460 nM.
Work on O=C(Cc1ccc(-n2cnnn2)cc1)N(Cc1cncn1Cc1cccc(C(F)(F)F)c1)CC1CC1 yielded an IC50 of 960 nM.
Compound COc1cc(CCCON2C(N)=NC(N)=NC2(C)C)cc(OC)c1OC has an IC50 of 40 nM.
NCc1ccc(CNCc2ccc(-c3ccc(-c4nc5ccc(C(F)(F)F)cc5[nH]4)s3)cc2)cc1 showed an IC50 of 160 nM.
For Cc1ccc(O)cc1Nc1ccnc2ccc(C(C)(C)C)cc12, the IC50 was 1250 nM.
c1ccc(Oc2ccc(Nc3ccnc4cc(-c5cccc(CN6CCOCC6)c5)ccc34)cc2)cc1 showed an IC50 of 340 nM.
Work on COc1ccc(CNCCCCCCNCCc2ccc(Cl)cc2)cc1OC yielded an IC50 of 1390 nM.
In the case of COc1ccc(CNC2CCN(C)CC2)cc1-c1ccc(S(=O)(=O)NCCc2ccccn2)c(C)c1, the IC50 is reported as 1150 nM.
For O=C(NC(NC(=S)Nc1ccc([N+](=O)[O-])cc1)C(Cl)(Cl)Cl)c1cccc(Cl)c1 (configuration not stated), the IC50 was 730 nM.
Compound CCCCN1CC[C@@H](CCC(O)c2ccnc3ccc(OCCC(C)C)cc23)[C@@H](CC)C1 (some centres not stated) has an IC50 of 990 nM.
In the case of Fc1cccc(COc2ccc(Nc3ncnc4sc(C#CCNC5CCC5)cc34)cc2Cl)c1, the IC50 is reported as 870 nM.
In the case of CCn1ncc2c(NC3CCOCC3)c(CNC(=O)c3ccnn3C)c(C)nc21, the IC50 is reported as 530 nM.
In the case of O=C(Nc1ccc(-c2ccccc2)cc1)Nc1cccc(OCCN2CCCC2)c1, the IC50 is reported as 930 nM.
In the case of COc1ccc2ncc(C#N)c(CCN3C[C@H](CNCc4ccccc4)[C@H](O)C3)c2n1, the IC50 is reported as 1060 nM.
With CS(=O)(=O)c1ccc2c(c1)CCN(CCC1CCC(NC(=O)C(=Cc3ccc(Cl)cc3Cl)c3ccc(-c4ccccc4)cc3)CC1)CC2 (configuration not stated) the IC50 was 1170 nM.
O=C(Nc1ccc(Cl)cc1)Nc1cccc(-c2cccc(-c3nc4ccc(F)cc4[nH]3)c2)c1 gave an IC50 of 220 nM.
Work on O=C(Nc1nc(-c2ccccn2)cs1)c1ccc(Br)s1 yielded an IC50 of 1060 nM.
With CCc1cn2c3c(cc(C(=O)N[C@@H](Cc4ccccc4)[C@H](O)CNCc4ccccc4)cc13)N(C)S(=O)(=O)CC2 the IC50 was 660 nM.
O=C(NCc1cccc(C(F)(F)F)c1)c1ccc(-c2nc3cc(F)c(F)cc3[nH]2)cc1 was tested, and the IC50 was 780 nM.
Work on O=C(/C=C/c1ccc(Cl)c(Cl)c1)NCCCCCN1CCCN(C(=O)Nc2ccc(Cl)c(Cl)c2)CC1 yielded an IC50 of 860 nM.
In the case of N#Cc1ccc(CNCCCCCCCNCc2ccc(-c3ccccc3)cc2)cc1, the IC50 is reported as 970 nM.
In the case of CC[C@H]1CN2CCc3cc(OC)c(OC)cc3[C@@H]2C[C@@H]1C[C@H]1NCCc2cc(OC)c(OC)cc21, the IC50 is reported as 210 nM.
Work on COc1ccc(-c2ccc(NC(=O)c3ccc(Cl)cc3)cc2)cc1CN1CCN(C)CC1 yielded an IC50 of 820 nM.
In the case of O=C(Nc1ccc(Cl)cc1)Nc1ccc(-c2cccc(-c3nc4ccc(F)cc4[nH]3)c2)cc1, the IC50 is reported as 290 nM.
For O=C(N[C@@H](Cc1ccccc1)[C@H](O)CNCCC(F)(F)F)c1cccc(CCC2CC2)c1, the IC50 was 1020 nM.
Work on COc1ccccc1CCCN1C(=O)C(c2ccccc2)(c2ccccc2)N=C1N yielded an IC50 of 270 nM.
In the case of Cc1cc(C=C2SC(=Nc3ccccc3)N(C3CCCC3)C2=O)c(C)n1-c1ccc(Cl)cc1, the IC50 is reported as 880 nM.
Work on CCCOc1ccccc1C(=O)Nc1nonc1-c1ccc(OCC)c(OCC)c1 yielded an IC50 of 710 nM.
With COc1ccc(-c2cncc(-c3ccc(OC)c(OC)c3)n2)cc1OC the IC50 was 780 nM.
With CN(C1CCC(NC(=O)/C=C/c2ccccc2)CC1)C1CC2(CCN(C(=O)OC(C)(C)C)CC2)c2ccccc21 (configuration not stated) the IC50 was 820 nM.
N#Cc1cc(C(=O)c2cc(Br)ccc2O)cn(C2CCCCC2)c1=O was tested, and the IC50 was 910 nM.
Compound CC1(C(=O)Nc2ccc([N+](=O)[O-])cc2O)CC2c3ccccc3C1c1ccccc12 (configuration not stated) has an IC50 of 710 nM.
CC(CN1CCN(C)CC1)C(=O)Nc1ccc(-c2cccc(-c3nc4ccc(F)cc4[nH]3)c2)cc1 (configuration not stated) gave an IC50 of 520 nM.
N#Cc1c(Cl)cccc1Oc1ccc(S(=O)(=O)NC2CCC(CN3CCC(c4c[nH]c5ccccc45)CC3)CC2)cc1 (configuration not stated) was tested, and the IC50 was 710 nM and 1070 nM.
With Cc1cc2nc(-c3ccc(SCC(=O)Nc4ccc5c(c4)OCCO5)nc3)[nH]c2cc1C the IC50 was 990 nM.
Work on CCO[C@H]1CN[C@H](C#Cc2cc3c(Nc4ccc(OCc5cccc(F)c5)c(Cl)c4)ncnc3s2)C1 yielded an IC50 of 940 nM.
C=CCOC(=O)N1CCC(CNCc2cccc(-c3ccc(-c4nc5c(C)cccc5[nH]4)s3)c2)C1 (configuration not stated) was tested, and the IC50 was 250 nM.
COc1ccc2c(NN=C(C)c3ccccn3)cc(C)nc2c1 gave an IC50 of 720 nM.
With FC(F)(F)c1ccc2nc(-c3ccc(-c4cccc(CNCC5CCCO5)c4)cc3)[nH]c2c1 (configuration not stated) the IC50 was 250 nM.
Work on COc1cccc(C2CCN(CCN3CCC(NC(=O)c4ccc(-c5ccc(C(F)(F)F)cc5)cc4)CC3)CC2)c1 yielded an IC50 of 200 nM.
For C[C@@H]1CN(c2cnn(C/C=C/c3ccc(NC(=O)c4ccc([N+](=O)[O-])cc4)cc3)c(=O)c2Cl)C[C@H](C)N1, the IC50 was 700 nM.
Compound Cc1cc(-c2cnc(N)c(-c3ccc(N4CCN(C)CC4)nc3)c2)cc(C)c1O has an IC50 of 1400 nM.
